Source: article PMC7176092, “Development of the first in vivo GPR17 ligand through an iterative drug discovery pipeline: A novel disease-modifying strategy for multiple sclerosis” (PLoS ONE, 2020)
Where two headings read alike, the source gives them in different places.

Columns and labels:
CCR3 = target: T1, CCR3 (Homo sapiens, UniProt P51677); assay: Cellular functional assay CCR3
T1 sequence (P51677 1-355): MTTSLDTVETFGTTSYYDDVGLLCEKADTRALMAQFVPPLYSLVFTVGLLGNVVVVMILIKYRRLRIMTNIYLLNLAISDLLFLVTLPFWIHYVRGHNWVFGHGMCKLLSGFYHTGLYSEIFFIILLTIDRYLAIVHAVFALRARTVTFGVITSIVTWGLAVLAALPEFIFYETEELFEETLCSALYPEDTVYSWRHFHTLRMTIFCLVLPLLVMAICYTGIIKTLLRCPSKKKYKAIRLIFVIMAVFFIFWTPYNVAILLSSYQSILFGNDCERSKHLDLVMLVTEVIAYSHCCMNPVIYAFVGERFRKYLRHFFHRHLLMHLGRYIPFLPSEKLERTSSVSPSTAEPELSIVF

CCR7 = target: T2, CCR7 (Homo sapiens, UniProt P32248); assay: Cellular functional assay CCR7
T2 sequence (P32248 25-378): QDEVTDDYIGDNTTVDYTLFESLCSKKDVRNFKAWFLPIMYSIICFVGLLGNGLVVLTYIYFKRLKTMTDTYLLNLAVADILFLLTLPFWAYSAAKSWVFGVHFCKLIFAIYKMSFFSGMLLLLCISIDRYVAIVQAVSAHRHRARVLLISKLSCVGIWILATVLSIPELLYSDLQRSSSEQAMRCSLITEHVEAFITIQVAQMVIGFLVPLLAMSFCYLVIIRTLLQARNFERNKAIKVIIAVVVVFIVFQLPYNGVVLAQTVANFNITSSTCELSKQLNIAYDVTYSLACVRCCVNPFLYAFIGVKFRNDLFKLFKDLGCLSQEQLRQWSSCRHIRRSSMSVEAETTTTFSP

CX3CR1 = target: T3, CX3CR1 (Homo sapiens, UniProt P49238); assay: Cellular functional assay CX3CR1
T3 sequence (P49238 1-355): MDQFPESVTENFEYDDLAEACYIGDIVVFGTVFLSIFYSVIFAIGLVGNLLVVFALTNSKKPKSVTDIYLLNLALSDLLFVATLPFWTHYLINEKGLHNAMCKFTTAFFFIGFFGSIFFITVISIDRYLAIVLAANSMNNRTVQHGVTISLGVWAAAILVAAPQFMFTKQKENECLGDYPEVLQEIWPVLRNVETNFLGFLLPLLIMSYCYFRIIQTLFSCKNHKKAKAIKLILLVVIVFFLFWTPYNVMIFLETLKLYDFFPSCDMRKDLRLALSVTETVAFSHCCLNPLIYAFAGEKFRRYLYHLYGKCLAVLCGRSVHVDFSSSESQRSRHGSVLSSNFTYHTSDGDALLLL

M2 = target: T4, M2 (Homo sapiens, UniProt P08172); assay: Binding assay M2; conditions: 100 nM
T4 construct: Eurofins Cerep (external service)
T4 sequence (P08172 1-466): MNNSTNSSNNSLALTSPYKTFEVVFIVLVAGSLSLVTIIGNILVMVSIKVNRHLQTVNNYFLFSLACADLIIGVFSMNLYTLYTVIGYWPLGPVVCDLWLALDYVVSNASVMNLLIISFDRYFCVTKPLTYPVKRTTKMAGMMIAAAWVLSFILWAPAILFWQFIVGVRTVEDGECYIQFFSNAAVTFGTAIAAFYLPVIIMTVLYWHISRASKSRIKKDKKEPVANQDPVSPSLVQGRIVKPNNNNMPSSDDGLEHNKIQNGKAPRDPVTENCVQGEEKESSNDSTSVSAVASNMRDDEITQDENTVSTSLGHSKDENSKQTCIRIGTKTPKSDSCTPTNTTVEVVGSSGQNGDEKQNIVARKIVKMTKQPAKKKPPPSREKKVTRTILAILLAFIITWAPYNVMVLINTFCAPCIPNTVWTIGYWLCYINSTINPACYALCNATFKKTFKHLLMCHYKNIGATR

[1] = antagonist effect, 100 nM, single replicates 1st and 2nd, 0.1 µM
[2] = read-out: % Inhibition of control agonist response
[3] = read-out: Agonist Response (% of Control), Mean, antagonist effect, 100 nM, mean of 2
[4] = read-out: Agonist Response (% of Control), antagonist effect, 100 nM, single replicates 1st and 2nd

- Agonist Response (% of Control) (CCR3; [1]): 121.2%
- inhibition at 0.1 µM (CCR3; [2]): -0.9%
- activity at 0.1 µM (CCR3; [3]): 118%
- activity at 0.1 µM (CCR3; [4]): 116%
- Agonist Response (% of Control) (CCR7; [1]): 122.8%
- inhibition at 0.1 µM (CCR7; [2]): -1.8%
- activity at 0.1 µM (CCR7; [3]): 127%
- activity at 0.1 µM (CCR7; [4]): 131%
- Agonist Response (% of Control) (CX3CR1; [1]): 105.4%
- inhibition at 0.1 µM (CX3CR1; [2]): 0.2%
- activity at 0.1 µM (CX3CR1; [3]): 107%
- activity at 0.1 µM (CX3CR1; [4]): 110%
- remaining activity at 0.1 µM (M2; mean of 2, read-out: % Of control specific binding, Mean): 108%
- inhibition at 0.1 µM (M2; read-out: % Inhibition of control specific binding): -8%
- % Of control specific binding (M2; single replicates 1 and 2, 0.1 µM): 111.1%
- remaining activity at 0.1 µM (M2; single replicates 1 and 2, read-out: % Of control specific binding): 104%
Structure (SMILES): Cc1ccc(-c2nnc(SCC(=O)Nc3nccs3)[nH]2)cc1 [Compound 9]
